Laboratory results published in article PMC11859184, “Synthesis and Evaluation of ^68Ga- and ^177Lu-Labeled [diF-Pro^14]Bombesin(6−14) Analogs for Detection and Radioligand Therapy of Gastrin-Releasing Peptide Receptor-Expressing Cancer” (Pharmaceuticals, 2025).
Read-outs that look alike come from different tables or passages of the source. Blank lines part the entries; values can stand above or below the compound they belong to.

Assays:
GRPR = biological target: T1, GRPR (Homo sapiens, UniProt P30550); assay: Fluorometric intracellular calcium release assay using PC-3 cells; format: cell-based
T1 construct: host or cells: PC-3 cells
T1 sequence (P30550 whole entry): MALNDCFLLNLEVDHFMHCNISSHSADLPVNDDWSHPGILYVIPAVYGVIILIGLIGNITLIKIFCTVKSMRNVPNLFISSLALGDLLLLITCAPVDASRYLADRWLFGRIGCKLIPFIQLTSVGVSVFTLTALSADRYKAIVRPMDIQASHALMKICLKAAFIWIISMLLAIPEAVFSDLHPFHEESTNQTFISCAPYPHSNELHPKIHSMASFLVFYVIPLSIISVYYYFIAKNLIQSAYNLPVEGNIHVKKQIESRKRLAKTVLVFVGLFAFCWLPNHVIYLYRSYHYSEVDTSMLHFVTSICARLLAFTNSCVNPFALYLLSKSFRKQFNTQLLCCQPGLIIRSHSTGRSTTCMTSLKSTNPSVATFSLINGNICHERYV
Experimental: The agonist/antagonist characteristics of LW02060, Ga-LW02060, Lu-LW02060, LW02080, Ga-LW02080, and Lu-LW02080 were determined following published procedures. The PC-3 cells were obtained from ATCC (via Cedarlane, Burlington, ON, Canada). A 96-well clear bottom black plate was seeded with 5 × 10^4 PC-3 cells in 100 μL growth media per well 24 h before the assay. The loading buffer (100 μL/well) containing a calcium-sensitive dye (FLIPR Calcium 6 assay kit from Molecular Devices, San Jose, CA, USA) was added into the 96-well plate, followed by 1 h incubation at 37 °C. The plate was then transferred into a FlexStation 3 microplate reader (Molecular Devices, San Jose, CA, USA). LW02060 (50 nM), Ga-LW02060 (50 nM), Lu-LW02060 (50 nM), LW02080 (50 nM), Ga-LW02080 (50 nM), Lu-LW02080 (50 nM), [D-Phe^6,Leu-NHEt^13,des-Met^14]Bombesin(6–14) (50 nM, antagonist control), bombesin (50 nM, agonist control), adenosine triphosphate (ATP, 50 nM, positive control), or DPBS (blank control) was added, and the fluorescent signals were measured for 2 min (λEx = 485 nm; λEm = 525 nm; n = 4). The relative fluorescent units (RFU = max − min) were calculated to determine the agonistic/antagonistic characteristics of LW02060, Ga-LW02060, Lu-LW02060, LW02080, Ga-LW02080, and Lu-LW02080, respectively.

[1] = Ex vivo biodistribution of 68Ga-labeled tracers in PC-3 tumor-bearing mice; settings: mouse, 1 h pi; for tissue to tissue ratio at 1 h: male, NOD.Cg-Rag1^tm1Mom Il2rg^tm1Wjl/SzJ (NRG), iv, total radioactivity; for tissue uptake at 1 h: intravenous
Experimental: PET/CT imaging and biodistribution studies were conducted using male NOD.Cg-Rag1^tm1Mom Il2rg^tm1Wjl/SzJ (NRG) mice following previously published procedures. The studies were carried out in compliance with the guidelines established by the Canadian Council on Animal Care and approved by Animal Ethics Committee of the University of British Columbia (protocol number A20-0113, approved on 30 September 2022). The mice were anaesthetized and subcutaneously implanted with 5 × 10^6 PC-3 cells (100 µL; 1:1 PBS/Matrigel) behind the left shoulder. PET/CT imaging and biodistribution studies were performed once the tumors reached a diameter of 5–8 mm, typically after approximately 4 weeks of growth.
For ex vivo biodistribution studies, the mice were injected with the ^68Ga-labeled tracer (2–4 MBq) via a lateral caudal tail vein. For blocking [^68Ga]Ga-LW02060, the mice were co-injected with 100 μg of [D-Phe^6,Leu-NHEt^13,des-Met^14]Bombesin(6–14). For blocking [^68Ga]Ga-LW02080, the mice were co-injected with 100 μg of its nonradioactive standard Ga-LW02080. At 1 h pi, the mice were euthanized by CO2 inhalation. Blood and organs/tissues of interest were collected, weighed, and counted using a gamma counter.

agonist/antagonist characteristics (GRPR): GRPR antagonists
intracellular calcium release (GRPR; 50 nM ligand, n = 4): 11.4 ± 0.32 RFU
Compound: DOTA-Pip-[D-Phe^6,NMe-Gly^11,Leu^13(ψ)diF-Pro^14]Bombesin(6–14) [LW02080]

tissue to tissue ratio at 1 h ([1]; tumor/blood, blocked (100 µg blocking agent co-injected), read-out: Tumor/blood uptake ratio): 3.72 ± 0.74
tissue to tissue ratio at 1 h ([1]; tumor/blood, n = 4, read-out: Tumor/blood uptake ratio): 29.1 ± 3.62
tissue to tissue ratio at 1 h ([1]; tumor/bone, blocked (100 µg blocking agent co-injected), read-out: Tumor/bone uptake ratio): 22.3 ± 8.24
tissue to tissue ratio at 1 h ([1]; tumor/bone, n = 4, read-out: Tumor/bone uptake ratio): 179 ± 46.9
tissue to tissue ratio at 1 h ([1]; tumor/kidney, blocked (100 µg blocking agent co-injected), read-out: Tumor/kidney uptake ratio): 0.54 ± 0.03
tissue to tissue ratio at 1 h ([1]; tumor/kidney, n = 4, read-out: Tumor/kidney uptake ratio): 4.86 ± 0.76
tissue to tissue ratio at 1 h ([1]; tumor/muscle, blocked (100 µg blocking agent co-injected), read-out: Tumor/muscle uptake ratio): 17.7 ± 3.85
tissue to tissue ratio at 1 h ([1]; tumor/muscle, n = 4, read-out: Tumor/muscle uptake ratio): 141 ± 19
tissue to tissue ratio at 1 h ([1]; tumor/pancreas, blocked (100 µg blocking agent co-injected), read-out: Tumor/pancreas uptake ratio): 2.87 ± 0.84
tissue to tissue ratio at 1 h ([1]; tumor/pancreas, n = 4, read-out: Tumor/pancreas uptake ratio): 5.52 ± 0.78
tissue uptake at 1 h ([1]; PC-3 tumor, 100 ug, blocked (100 µg blocking agent co-injected), read-out: PC-3 tumor uptake): 6.11 ± 0.42 %ID/g
tissue uptake at 1 h ([1]; PC-3 tumor, n = 4, read-out: PC-3 tumor uptake): 16.8 ± 2.7 %ID/g
tissue uptake at 1 h ([1]; adrenal glands, 100 ug, blocked (100 µg blocking agent co-injected), read-out: Adrenal glands uptake): 0.67 ± 0.03 %ID/g
tissue uptake at 1 h ([1]; adrenal glands, n = 4, read-out: Adrenal glands uptake): 0.66 ± 0.16 %ID/g
tissue uptake at 1 h ([1]; blood, 100 ug, blocked (100 µg blocking agent co-injected), read-out: Blood uptake): 1.71 ± 0.44 %ID/g
tissue uptake at 1 h ([1]; blood, n = 4, read-out: Blood uptake): 0.54 ± 0.03 %ID/g
tissue uptake at 1 h ([1]; bone, 100 ug, blocked (100 µg blocking agent co-injected), read-out: Bone uptake): 0.29 ± 0.07 %ID/g
tissue uptake at 1 h ([1]; bone, n = 4, read-out: Bone uptake): 0.1 ± 0.04 %ID/g
tissue uptake at 1 h ([1]; brain, 100 ug, blocked (100 µg blocking agent co-injected), read-out: Brain uptake): 0.05 ± 0.01 %ID/g
tissue uptake at 1 h ([1]; brain, n = 4, read-out: Brain uptake): 0.02 ± 0.01 %ID/g
tissue uptake at 1 h ([1]; fat, 100 ug, blocked (100 µg blocking agent co-injected), read-out: Fat uptake): 0.27 ± 0.1 %ID/g
tissue uptake at 1 h ([1]; fat, n = 4, read-out: Fat uptake): 0.05 ± 0.02 %ID/g
tissue uptake at 1 h ([1]; heart, 100 ug, blocked (100 µg blocking agent co-injected), read-out: Heart uptake): 0.52 ± 0.14 %ID/g
tissue uptake at 1 h ([1]; heart, n = 4, read-out: Heart uptake): 0.2 ± 0.05 %ID/g
tissue uptake at 1 h ([1]; kidneys, 100 ug, blocked (100 µg blocking agent co-injected), read-out: Kidneys uptake): 11.3 ± 0.97 %ID/g
tissue uptake at 1 h ([1]; kidneys, n = 4, read-out: Kidneys uptake): 3.58 ± 1.14 %ID/g
tissue uptake at 1 h ([1]; large intestine, 100 ug, blocked (100 µg blocking agent co-injected), read-out: Large intestine uptake): 0.54 ± 0.13 %ID/g
tissue uptake at 1 h ([1]; large intestine, n = 4, read-out: Large intestine uptake): 0.61 ± 0.1 %ID/g
tissue uptake at 1 h ([1]; liver, 100 ug, blocked (100 µg blocking agent co-injected), read-out: Liver uptake): 1.11 ± 0.43 %ID/g
tissue uptake at 1 h ([1]; liver, n = 4, read-out: Liver uptake): 0.37 ± 0.08 %ID/g
tissue uptake at 1 h ([1]; lungs, 100 ug, blocked (100 µg blocking agent co-injected), read-out: Lungs uptake): 1.52 ± 0.39 %ID/g
tissue uptake at 1 h ([1]; lungs, n = 4, read-out: Lungs uptake): 0.61 ± 0.15 %ID/g
tissue uptake at 1 h ([1]; muscle, 100 ug, blocked (100 µg blocking agent co-injected), read-out: Muscle uptake): 0.35 ± 0.08 %ID/g
tissue uptake at 1 h ([1]; muscle, n = 4, read-out: Muscle uptake): 0.12 ± 0.03 %ID/g
tissue uptake at 1 h ([1]; pancreas, 100 ug, blocked (100 µg blocking agent co-injected), read-out: Pancreas uptake): 2.25 ± 0.59 %ID/g
tissue uptake at 1 h ([1]; pancreas, n = 4, read-out: Pancreas uptake): 3.12 ± 0.89 %ID/g
tissue uptake at 1 h ([1]; small intestine, 100 ug, blocked (100 µg blocking agent co-injected), read-out: Small intestine uptake): 0.72 ± 0.02 %ID/g
tissue uptake at 1 h ([1]; small intestine, n = 4, read-out: Small intestine uptake): 0.96 ± 0.2 %ID/g
tissue uptake at 1 h ([1]; spleen, 100 ug, blocked (100 µg blocking agent co-injected), read-out: Spleen uptake): 0.53 ± 0.15 %ID/g
tissue uptake at 1 h ([1]; spleen, n = 4, read-out: Spleen uptake): 0.24 ± 0.1 %ID/g
tissue uptake at 1 h ([1]; stomach, 100 ug, blocked (100 µg blocking agent co-injected), read-out: Stomach uptake): 0.38 ± 0.06 %ID/g
tissue uptake at 1 h ([1]; stomach, n = 4, read-out: Stomach uptake): 0.77 ± 0.29 %ID/g
tissue uptake at 1 h ([1]; testes, 100 ug, blocked (100 µg blocking agent co-injected), read-out: Testes uptake): 0.76 ± 0.29 %ID/g
tissue uptake at 1 h ([1]; testes, n = 4, read-out: Testes uptake): 0.2 ± 0.06 %ID/g
Compound: CC(C)C[C@H](NC(=O)[C@H](Cc1cnc[nH]1)N(C)C(=O)CNC(=O)[C@@H](NC(=O)[C@H](C)NC(=O)[C@H](Cc1c[nH]c2ccccc12)NC(=O)[C@H](CCC(N)=O)NC(=O)[C@@H](Cc1ccccc1)NC(=O)CN1CCC(NC(=O)CN2CCN(CC(=O)O)CCN(CC(=O)O)CCN(CC(=O)O)CC2)CC1)C(C)(C)C)C(=O)N1CC(F)(F)C[C@H]1C(N)=O [[^68Ga]Ga-LW02060, metal not drawn]
